Target: Microtubule-associated proteins 1A/1B light chain 3B (Homo sapiens, UniProt Q9GZQ8)
Assay: Molecular Level Experiments of Targeting LC3B

| IC50 | SMILES |
| --- | --- |
| in the range around 9 µM | O=C1CC(c2ccccc2)CC(=O)C1=CNCCN1CCN(C(=S)Nc2cccc(Cl)c2)CC1 (stereo not drawn) [US11529321, Compound 31] |
| in the range around 9 µM | CCCCCC(=O)N1CCN(CCNC=C2C(=O)CC(c3ccco3)CC2=O)CC1 (stereo not drawn) [US11529321, Compound 58] |
| in the range around 9 µM | C=CCNC(=S)N1CCN(CCNC=C2C(=O)CC(c3ccco3)CC2=O)CC1 (stereo not drawn) [US11529321, Compound 39] |

— BindingDB's records for patent US11529321 (Wigen Biomedicine Technology (Shanghai), 2022)
